Entries after “also recorded” stand apart in the source; their conditions may differ.

The source of these data is US8334135B2, “Stem cells from adipose tissue, and differentiated cells from said cells” (Yves Saint Laurent Parfums, priority 2002, dated 2012).

The test system of experiment [1] is adipocytes obtained from Primo 2CA T32 cells. As to the kind of experiment: Lipolysis test (glycerol liberated by adipocytes in the presence of adrenergic receptor agonists). The note with it: adipocytes from Primo 2CA T32 cells (about 140 population doublings); control 5.76. In kind it is cell-based, human. As for the experimental part: Lipolyses were carried out on adipocytes obtained from Primo 2CA T32 cells (about 140 population doublings), with agonists specific for different β-adrenergic receptors.
This test consists of measuring the radiolabelled glycerol liberated by adipocytes in the presence of adrenergic receptor agonists. The method used is that described by Bradley D C and Kaslow H R (Anal Biochem, 1989, 180, 11-16). The glycerol liberated is phosphorylated in the presence of glycerokinase and ATP and ATP labeled with ^32P in the […]. The residual ATP is then hydrolyzed in an acid medium at 90° C. and precipitated with ammonium molybdate and triethylamine. The radioactivity incorporated in the form of glycerophosphate labelled with ^32P is estimated by counting in a β counter and the values are expressed in pmol using a calibration curve.
Lipolyses were carried out on Primo 2CA T32 cells with specific agonists for the different β adrenergic receptors, namely: • Isoproterenol: β1, β2 adrenergic • Dobutamine: β1 adrenergic • Terbutaline: β2 adrenergic • CL316243 β3 adrenergic: […]

Experiment [2] deals with stem cells of the invention. The experiment in a line: Effect of Leukemia Inhibitory Factor on morphology and proliferation of the stem cells. It counts as cell-based, human. The note with it: LIF 10 ng/ml. As for the experimental part:
For this enrichment step, different culture media were tested.

The next experiment concerns CA population. As to the kind of experiment: Effect of bFGF on proliferation of the quiescent CA population. It counts as cell-based, human. As for the experimental part: The addition of growth factors such as bFGF incorporated, for example, at a concentration of about 3 to 20 ng/ml of medium, in particular 5 to 10 ng/ml, not only halves the population doubling time (for example the population doubling time without bFGF is about 72 hours, while it is about 36 hours with bFGF), but also allows the population to reach confluence. Without growth factors, proliferation of a quiescent population of stem cells of the invention can be provoked by trypsination and dilution, but proliferation will spontaneously stop at about 70% confluence. Since confluence is indispensable in vitro for initiating the differentiation of many cell types, the use of growth factors such as bFGF must be envisaged for in vitro production of this type of differentiated cell.
These observations confirm the quiescent state of the CA population and the state of senescence in the CS population.
After establishing a population of quiescent CA cells, human bFGF (basic Fibroblast Growth Factor) is added to the culture medium described above in a concentration of 5 ng/ml of medium.

Another experiment has as its system CS population. The experiment in a line: Effect of bFGF on proliferation of the CS population at late stages. It counts as cell-based, human. The note with it: bFGF 5 ng/ml, after 50 population doublings.
The subject of the next experiment is Primo 2CS cells. As to the kind of experiment: Glycerophosphate dehydrogenase (GPDH) activity during adipocyte differentiation of Primo 2CS cells. In kind it is cell-based. The following applies: Primo 2CS cells T22 in the presence of human bFGF; after 13 days of differentiation (3 experiments); control 22. As for the experimental part:
(§1) The confluent cells are incubated in a DMEM/Ham's F12 (vol/vol, 1:1) medium supplemented with 100 U/ml of penicillin, 100 μg/ml of streptomycin, 5 μg/ml of human insulin (Sigma), 10 μg/ml of human transferrin (Sigma), 1 μM of PPAR activator (for example BRL49653), 100 to 250 μM of isobutyl-methylxanthine (IBMX) and 1 μM of dexamethasone. 48 to 72 hours later, this medium is replaced by the medium described above but containing no IBMX and dexamethasone. This differentiation medium is replaced every 2-3 days for a period of 15 to 20 days corresponding to an optimum adipocyte differentiation. Firstly, the cells which are to have the GPDH activity measure, are lysed. […] The reading is made with a spectrophotometer, allowing kinetic measurements to be carried out (KONTRON Uvicon 860 thermostatted at 37° C.).

The next experiment has as its system Primo 2CA cells. As to the kind of experiment: Glycerophosphate dehydrogenase (GPDH) activity during adipocyte differentiation of Primo 2CA cells. In kind it is cell-based. The note with it: Primo 2CA cells T24 in the presence of human bFGF. The protocol:
as §1

On to `C[C@H](Cc1ccc2c(c1)OC(C(=O)[O-])(C(=O)[O-])O2)NC[C@H](O)c1cccc(Cl)c1.[Na+].[Na+]` [CL316243], for which the lipolysis rate in experiment [1] is 17.1 nmol/h/mg of protein. Still for that read-out and setting: the figure for `CC(CCc1ccc(O)cc1)NCCc1ccc(O)c(O)c1` (stereo not shown) [Dobutamine] is 60.1 nmol/h/mg of protein.

As to LIF: Leukemia Inhibitory Factor, the “effect on morphology or proliferation of the cells” value in experiment [2] was “no change in the morphology or proliferation; also recorded: no changes in morphology or proliferation”. Consider “bFGF: human basic Fibroblast Growth Factor”, for which the “effect on proliferation of CA population” value with CA population (bFGF 5 ng/ml, late stages, after 50 population doublings) is reported as “effectively respond”. The population doubling time entry with CA population (with bFGF (about 3 to 20 ng/ml), about 72 hours without bFGF) was “about 36 hours”. In the experiment on CS population, the “effect on proliferation of CS population” value is given as “no significant effect; also recorded: practically no effect”. Turning to `CN(CCOc1ccc(CC2SC(=O)NC2=O)cc1)c1ccccn1` (stereo not shown) [BRL49653], the GPDH activity is 30 nmol/min/mg of protein in the experiment with Primo 2CS cells; 290 nmol/min/mg of protein in the experiment with Primo 2CA cells (after 11 days of differentiation (2 experiments), control 77); 390 nmol/min/mg of protein with Primo 2CA cells (after 16 days of differentiation (3 experiments), control 20).

Take `CC(C)(C)NCC(O)c1cc(O)cc(O)c1` (stereo not shown) [Terbutaline]: in experiment [1], the lipolysis rate was 93.78 nmol/h/mg of protein.
